Patent US20130338106A1, “COMPOUNDS INHIBITING LEUCINE-RICH REPEAT KINASE ENZYME ACTIVITY” (priority 2011, published 2013)

Target: T1, LRRK2 G2019S mutant kinase (Homo sapiens, UniProt Q5S007, G2019S)
T1 construct: GST; purchased Invitrogen PV4882
Assay: LRRK2 G2019S LanthaScreen TR-FRET kinase assay
Format: biochemical
Details: LRRK2 G2019S GST-tagged protein, 100 μM ATP, LRRKtide substrate; read-out: IC50 (potency)
Description: Activity of compounds against LRRK2 G2019S mutant kinase function was tested in a LANTHAScreen® assay as follows: Compounds were diluted in 100% DMSO to the desired test concentrations in white, low-volume 384-well plates (PerkinElmer ProxiPlate® PN: 6008280). TR-FRET kinase reactions (10 μL) were performed with 75 nM Fluorescein-ERM (LRRKtide, Invitrogen, PN:PV4901) substrate in a final assay buffer containing 100 μM ATP and 2 mM DTT diluted in commercially available Kinase Buffer S (Invitrogen PN: PV5213). The final solvent concentration in the assay was 1% DMSO. Reactions were initiated with the addition of 10 ng/well of LRRK2 02019S, GST-tagged protein (Invitrogen PN: PV4882). After incubation of the foil sealed reaction plates at room temperature with low speed mixing for 1 hour, the kinase reaction was stopped and the amount of substrate phosphorylation was detected by addition of 10 μL of 10 mM EDTA and 2 nM Tb-anti-pERM (pLRRKtide antibody, Invitrogen, PN: PV4898) antibody in TR-FRET dilution buffer (Invitrogen PN: PV3574). After a 30 minute incubation at room temperature with low speed mixing, foil seals were removed and measurements were obtained on a PerkinElmer EnVision with excitation 340 nm, emission 520 nm (channel 1): 495 nm (channel 2) settings. Generation of raw data and workup of data to derive the IC50 (potency) and maximal inhibition at concentrations tested were performed using Merck's Assay Data Analyzer (ADA) software.

T1 sequence (Q5S007 whole entry G2019S): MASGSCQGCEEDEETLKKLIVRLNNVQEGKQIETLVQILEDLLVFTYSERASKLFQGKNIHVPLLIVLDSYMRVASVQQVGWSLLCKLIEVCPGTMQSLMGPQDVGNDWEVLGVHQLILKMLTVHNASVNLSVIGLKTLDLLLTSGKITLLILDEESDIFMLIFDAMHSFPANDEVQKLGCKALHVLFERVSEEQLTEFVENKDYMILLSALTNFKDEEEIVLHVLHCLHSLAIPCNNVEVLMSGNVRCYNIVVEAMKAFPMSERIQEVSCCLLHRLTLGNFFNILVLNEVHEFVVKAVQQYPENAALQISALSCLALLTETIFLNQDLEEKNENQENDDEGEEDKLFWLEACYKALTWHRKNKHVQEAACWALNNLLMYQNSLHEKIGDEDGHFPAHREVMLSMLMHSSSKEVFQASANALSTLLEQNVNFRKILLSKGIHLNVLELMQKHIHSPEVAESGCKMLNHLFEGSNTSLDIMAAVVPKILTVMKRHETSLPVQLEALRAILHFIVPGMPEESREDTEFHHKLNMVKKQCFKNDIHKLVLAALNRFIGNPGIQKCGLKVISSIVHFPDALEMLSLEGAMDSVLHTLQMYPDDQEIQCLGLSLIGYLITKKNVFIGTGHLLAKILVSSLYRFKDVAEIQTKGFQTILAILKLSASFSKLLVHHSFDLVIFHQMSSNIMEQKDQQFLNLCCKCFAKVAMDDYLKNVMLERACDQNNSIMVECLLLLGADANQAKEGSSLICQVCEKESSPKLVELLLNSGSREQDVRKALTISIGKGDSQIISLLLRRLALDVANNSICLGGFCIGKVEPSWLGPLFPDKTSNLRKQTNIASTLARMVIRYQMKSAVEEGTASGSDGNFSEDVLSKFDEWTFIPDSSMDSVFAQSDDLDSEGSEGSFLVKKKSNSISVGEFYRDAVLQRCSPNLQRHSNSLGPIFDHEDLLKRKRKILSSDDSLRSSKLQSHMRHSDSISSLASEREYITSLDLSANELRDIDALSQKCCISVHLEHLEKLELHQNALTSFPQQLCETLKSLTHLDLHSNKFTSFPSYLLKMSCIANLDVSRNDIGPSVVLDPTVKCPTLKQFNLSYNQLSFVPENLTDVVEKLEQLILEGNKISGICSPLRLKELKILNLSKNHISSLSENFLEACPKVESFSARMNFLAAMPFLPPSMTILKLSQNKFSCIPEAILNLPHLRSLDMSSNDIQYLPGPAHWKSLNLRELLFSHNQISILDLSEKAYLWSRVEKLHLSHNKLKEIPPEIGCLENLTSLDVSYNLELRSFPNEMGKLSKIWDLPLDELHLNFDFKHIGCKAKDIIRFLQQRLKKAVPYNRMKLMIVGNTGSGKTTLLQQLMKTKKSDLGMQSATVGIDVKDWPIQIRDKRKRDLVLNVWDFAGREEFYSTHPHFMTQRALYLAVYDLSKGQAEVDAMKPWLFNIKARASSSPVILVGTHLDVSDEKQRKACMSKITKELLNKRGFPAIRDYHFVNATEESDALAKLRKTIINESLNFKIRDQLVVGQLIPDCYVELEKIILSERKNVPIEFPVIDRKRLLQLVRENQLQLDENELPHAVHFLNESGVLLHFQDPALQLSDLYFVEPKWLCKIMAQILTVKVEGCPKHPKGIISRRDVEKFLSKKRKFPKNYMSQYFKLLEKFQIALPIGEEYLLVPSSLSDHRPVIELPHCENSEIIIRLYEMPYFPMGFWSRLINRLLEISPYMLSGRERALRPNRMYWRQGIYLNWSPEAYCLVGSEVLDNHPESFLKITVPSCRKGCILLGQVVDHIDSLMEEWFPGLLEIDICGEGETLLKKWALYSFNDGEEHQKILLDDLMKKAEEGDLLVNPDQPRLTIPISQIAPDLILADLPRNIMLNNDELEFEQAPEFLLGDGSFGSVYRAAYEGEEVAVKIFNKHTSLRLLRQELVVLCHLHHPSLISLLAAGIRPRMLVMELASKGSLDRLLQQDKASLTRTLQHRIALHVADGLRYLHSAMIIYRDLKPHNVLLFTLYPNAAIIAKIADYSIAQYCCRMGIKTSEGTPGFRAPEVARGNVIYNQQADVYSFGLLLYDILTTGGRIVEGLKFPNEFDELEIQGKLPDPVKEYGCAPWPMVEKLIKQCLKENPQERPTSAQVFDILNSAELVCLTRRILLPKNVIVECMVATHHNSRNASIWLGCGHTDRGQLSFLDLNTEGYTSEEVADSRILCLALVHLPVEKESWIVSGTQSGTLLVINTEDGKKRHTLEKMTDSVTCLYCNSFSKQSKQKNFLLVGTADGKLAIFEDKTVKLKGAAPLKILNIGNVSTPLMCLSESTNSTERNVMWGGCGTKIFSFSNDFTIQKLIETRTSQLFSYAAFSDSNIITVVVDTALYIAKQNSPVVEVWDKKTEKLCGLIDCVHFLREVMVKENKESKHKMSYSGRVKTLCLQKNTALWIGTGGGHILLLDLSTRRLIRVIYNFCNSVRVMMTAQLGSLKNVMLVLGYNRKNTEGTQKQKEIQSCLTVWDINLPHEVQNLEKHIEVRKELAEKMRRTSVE

SMILES	IC50 [µM]
CS(=O)(=O)c1sc(-c2cc[nH]n2)c2c1C(=O)CCC2 [Example 2, 3-(Methylsulfonyl)-1-(1H-pyrazol-3-yl)-6,7-dihydro-2-benzothiophen-4(5H)-one]	3.5
O=C1CCCc2c(-c3cc[nH]n3)sc(SC3CCCC3)c21 [Example 3, 3-(Cyclopentylsulfanyl)-1-(1H-pyrazol-3-yl)-6,7-dihydro-2-benzothiophen-4(5H)-one]	0.43
O=C1CCCc2c(-c3cc[nH]n3)sc(NC3CCCC3)c21 [Example 4, 3-(Cyclopentylamino)-1-(1H-pyrazol-3-yl)-6,7-dihydro-2-benzothiophen-4(5H)-one]	0.16
CSc1sc(-c2cc[nH]n2)c2c1C(=O)CC(C)(C)C2 [Example 5, 6,6-Dimethyl-3-(methylsulfanyl)-1-(1H-pyrazol-3-yl)-6,7-dihydro-2-benzothiophen-4(5H)-one]	0.23
CC1(C)CC(=O)c2c(S(C)(=O)=O)sc(-c3cc[nH]n3)c2C1 [Example 6, 6,6-Dimethyl-3-(methylsulfonyl)-1-(1H-pyrazol-3-yl)-6,7-dihydro-2-benzothiophen-4(5H)-one]	2.8
CCSc1sc(-c2cc[nH]n2)c2c1C(=O)CC(C)(C)C2 [Example 8, 3-(Ethylsulfanyl)-6,6-dimethyl-1-(1H-pyrazol-3-yl)-6,7-dihydro-2-benzothiophen-4(5H)-one]	0.18
CC(C)Sc1sc(-c2cc[nH]n2)c2c1C(=O)CC(C)(C)C2 [Example 9, 6,6-Dimethyl-3-(propan-2-ylsulfanyl)-1-(1H-pyrazol-3-yl)-6,7-dihydro-2-benzothiophen-4(5H)-one]	0.14
CC1(C)CC(=O)c2c(SCCO)sc(-c3cc[nH]n3)c2C1 [Example 10, 3-[(2-Hydroxyethyl)sulfanyl]-6,6-dimethyl-1-(1H-pyrazol-3-yl)-6,7-dihydro-2-benzothiophen-4(5H)-one]	0.24
CC1(C)CC(=O)c2c(SCCCO)sc(-c3cc[nH]n3)c2C1 [Example 11, 3-[(3-Hydroxypropyl)sulfanyl]-6,6-dimethyl-1-(1H-pyrazol-3-yl)-6,7-dihydro-2-benzothiophen-4(5H)-one]	0.2
COCCSc1sc(-c2cc[nH]n2)c2c1C(=O)CC(C)(C)C2 [Example 12, 3-[(2-Methoxyethyl)sulfanyl]-6,6-dimethyl-1-(1H-pyrrazol-3-yl)-6,7-dihydro-2-henzothiophen-4(5H)-one]	0.29
CN(C)CCSc1sc(-c2cc[nH]n2)c2c1C(=O)CC(C)(C)C2 [Example 13, 3-{[2-(Dimethylamino)ethyl]sulfanyl}-6,6-dimethyl-1-(1H-pyrazol-3-yl)-6,7-dihydro-2-benzothiophen-4(5H)-one]	0.52
CC1(C)CC(=O)c2c(SCc3ccccc3)sc(-c3cc[nH]n3)c2C1 [Example 14, 3-(Benzylsulfanyl)-6,6-dimethyl-1-(1H-pyrazol-3-yl)-6,7-dihydro-2-benzothiophen-4(5H)-one]	0.86
CC1(C)CC(=O)c2c(SCc3ccco3)sc(-c3cc[nH]n3)c2C1 [Example 15, 3-[(Furan-2-ylmethyl)sulfanyl]-6,6-dimethyl-1-(1H-pyrazol-3-yl)-6,7-dihydro-2-benzothiophen-4(5H)-one]	0.45
CC(O)CSc1sc(-c2cc[nH]n2)c2c1C(=O)CC(C)(C)C2 (centres unmarked) [Example 16, 3-[(2-Hydroxypropyl)sulfanyl]-6,6-dimethyl-1-(1H-pyrazol-3-yl)-6,7-dihydro-2-benzothiophen-4(5H)-one]	0.22
CC1(C)CC(=O)c2c(SCCc3ccccc3)sc(-c3cc[nH]n3)c2C1 [Example 17, 6,6-Dimethyl-3-[(2-phenylethyl)sulfanyl]-1-(1H-pyrazol-3-yl)-6,7-dihydro-2-benzothiophen-4(5H)-one]	0.45
CCC(C)CSc1sc(-c2cc[nH]n2)c2c1C(=O)CC(C)(C)C2 (centres unmarked) [Example 18, 6,6-Dimethyl-3-[(2-methylbutyl)sulfanyl]-1-(1H-pyrazol-3-yl)-6,7-dihydro-2-benzothiophen-4(5H)-one]	0.22
CC1(C)CC(=O)c2c(SCCCCCCO)sc(-c3cc[nH]n3)c2C1 [Example 19, 3-[(6-Hydroxyhexyl)sulfanyl]-6,6-dimethyl-1-(1H-pyrazol-3-yl)-6,7-dihydro-2-benzothiophen-4(5H)-one]	0.06
CC1(C)CC(=O)c2c(SCCCCCCN=[N+]=[N-])sc(-c3cc[nH]n3)c2C1 [Example 20, 3-[(6-Azidohexyl)sulfanyl]-6,6-dimethyl-1-(1H-pyrazol-3-yl)-6,7-dihydro-2-benzothiophen-4(5H)-one]	0.49
CC1(C)CC(=O)c2c(SCCCN=[N+]=[N-])sc(-c3cc[nH]n3)c2C1 [Example 21, 3-[(3-Azidopropyl)sulfanyl]-6,6-dimethyl-1-(1H-pyrazol-3-yl)-6,7-dihydro-2-benzothiophen-4(5H)-one]	0.2
CC1(C)CC(=O)c2c(SCC3CC3)sc(-c3cc[nH]n3)c2C1 [Example 22, 3-[(Cyclopropylmethyl)sulfanyl]-6,6-dimethyl-1-(1H-pyrazol-3-yl)-6,7-dihydro-2-benzothiophen-4(5H)-one]	0.13
CC(=O)NCCCCCCSc1sc(-c2cc[nH]n2)c2c1C(=O)CC(C)(C)C2 [Example 23, N-(6-{[5,5-Dimethyl-7-oxo-3-(1H-pyrazol-3-yl)-4,5,6,7-tetrahydro-2-benzothiophen-1-yl]sulfanyl}hexyl)acetamide]	0.18
CC1(C)CC(=O)c2c(SCCCCCCN)sc(-c3cc[nH]n3)c2C1 [Example 24, 3-[(6-Aminohexyl)sulfanyl]-6,6-dimethyl-1-(1H-pyrazol-3-yl)-6,7-dihydro-2-benzothiophen-4(5H)-one]	0.07
CC1(C)CC(=O)c2c(SCC(O)CO)sc(-c3cc[nH]n3)c2C1 (centres unmarked) [Example 25, 3-[(2,3-Dihydroxypropyl)sulfanyl]-6,6-dimethyl-1-(1H-pyrazol-3-yl)-6,7-dihydro-2-benzothiophen-4(5H)-one]	0.74
CC(C)CSc1sc(-c2cc[nH]n2)c2c1C(=O)CC(C)(C)C2 [Example 26, 6,6-Dimethyl-3-[(2-methylpropyl)sulfanyl]-1-(1H-pyrazol-3-yl)-6,7-dihydro-2-benzothiophen-4(5H)-one]	0.12
CCCCSc1sc(-c2cc[nH]n2)c2c1C(=O)CC(C)(C)C2 [Example 27, 3-(Butylsulfanyl)-6,6-dimethyl-1-(1H-pyrazol-3-yl)-6,7-dihydro-2-benzothiophen-4(5H)-one]	0.14
CCCSc1sc(-c2cc[nH]n2)c2c1C(=O)CC(C)(C)C2 [Example 28, 6,6-Dimethyl-3-(propylsulfanyl)-1-(1H-pyrazol-3-yl)-6,7-dihydro-2-benzothiophen-4(5H)-one]	0.16
CC1(C)CC(=O)c2c(SCC(F)(F)F)sc(-c3cc[nH]n3)c2C1 [Example 29, 6,6-Dimethyl-1-(1H-pyrazol-3-yl)-3-[(2,2,2-trifluoroethyl)sulfanyl]-6,7-dihydro-2-benzothiophen-4(5H)-one]	0.25
CCC(C)Sc1sc(-c2cc[nH]n2)c2c1C(=O)CC(C)(C)C2 (centres unmarked) [Example 30, 3-(Butan-2-ylsulfanyl)-6,6-dimethyl-1-(1H-pyrazol-3-yl)-6,7-dihydro-2-benzothiophen-4(5H)-one]	0.18
CC1(C)CC(=O)c2c(SCC[Si](C)(C)C)sc(-c3cc[nH]n3)c2C1 [Example 31, 6,6-Dimethyl-1-(1H-pyrazol-3-yl)-3-{[2-(trimethylsilyl)ethyl]sulfanyl}-6,7-dihydro-2-benzothiophen-4(5H)-one]	1.9
